From patent US9738634B2, “Heterocyclic amide compound and herbicide” (SYNGENTA PARTICIPATIONS AG, priority 2013, dated 2017)

Legend:
Type in all cases: in vivo
Conditions in all cases: treatment dosage 320 g/ha
barnyard grass [1] = assay: Test Example 1: weedkilling efficacy, preemergent weed treatment in the submerged state; A: barnyard grass
Summary of the method: (§1)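 Pre-emergence paddy test: weed seeds sown in submerged alluvial soil (4 cm water), 2.5-leaf rice transplanted, water-diluted emulsion applied to water surface at sowing at stated g/ha. Scored at 3 weeks, greenhouse 25–30 °C.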

bulrush [2] = assay: Test Example 1: weedkilling efficacy, preemergent weed treatment in the submerged state; B: bulrush
Summary of the method: as §1

oval-leafed pondweed [3] = assay: Test Example 1: weedkilling efficacy, preemergent weed treatment in the submerged state; C: oval-leafed pondweed
Summary of the method: as §1

transplanted rice = assay: Test Example 1: preemergent weed treatment in the submerged state, effect on crop; a: transplanted rice
Summary of the method: as §1

barnyard grass [4] = assay: Test Example 2: weedkilling efficacy, growth period weed treatment in the submerged state; A: barnyard grass
Summary of the method: (§2)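 Seedlings at 1-2 leaves in 4 cm-deep submerged alluvial soil received emulsion formulations on the water surface, dosed per hectare; effects were judged 3 weeks on.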

bulrush [5] = assay: Test Example 2: weedkilling efficacy, growth period weed treatment in the submerged state; B: bulrush
Summary of the method: as §2

oval-leafed pondweed [6] = assay: Test Example 2: weedkilling efficacy, growth period weed treatment in the submerged state; C: oval-leafed pondweed
Summary of the method: as §2

crabgrass [7] = assay: Test Example 3: weedkilling efficacy through soil treatment; D: crabgrass
Summary of the method: (§3)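 Crop and weed responses were judged three weeks after a uniform surface spray of the water-diluted emulsion at the given g/ha rate. Seeds sat beneath about 1.5 cm of sterilized diluvial soil, and boxes stood in a greenhouse at 25 to 30° C.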

green foxtail [8] = assay: Test Example 3: weedkilling efficacy through soil treatment; E: green foxtail
Summary of the method: as §3

barnyard grass [9] = assay: Test Example 3: weedkilling efficacy through soil treatment; F: barnyard grass
Summary of the method: as §3

wild oat [10] = assay: Test Example 3: weedkilling efficacy through soil treatment; G: wild oat
Summary of the method: as §3

black-grass [11] = assay: Test Example 3: weedkilling efficacy through soil treatment; H: black-grass
Summary of the method: as §3

Italian ryegrass [12] = assay: Test Example 3: weedkilling efficacy through soil treatment; I: Italian ryegrass
Summary of the method: as §3

common wind-grass [13] = assay: Test Example 3: weedkilling efficacy through soil treatment; J: common wind-grass
Summary of the method: as §3

Indian mallow [14] = assay: Test Example 3: weedkilling efficacy through soil treatment; K: Indian mallow
Summary of the method: as §3

redroot pigweed [15] = assay: Test Example 3: weedkilling efficacy through soil treatment; L: redroot pigweed
Summary of the method: as §3

fig-leafed goosefoot [16] = assay: Test Example 3: weedkilling efficacy through soil treatment; M: fig-leafed goosefoot
Summary of the method: as §3

chickweed [17] = assay: Test Example 3: weedkilling efficacy through soil treatment; N: chickweed
Summary of the method: as §3

birds-eye speedwell [18] = assay: Test Example 3: weedkilling efficacy through soil treatment; p: birds-eye speedwell
Summary of the method: as §3

directly sown rice [19] = assay: Test Example 3: soil treatment, effect on crop; b: directly sown rice
Summary of the method: as §3

corn [20] = assay: Test Example 3: soil treatment, effect on crop; c: corn
Summary of the method: as §3

soybean [21] = assay: Test Example 3: soil treatment, effect on crop; d: soybean
Summary of the method: as §3

wheat [22] = assay: Test Example 3: soil treatment, effect on crop; e: wheat
Summary of the method: as §3

beet [23] = assay: Test Example 3: soil treatment, effect on crop; f: beet
Summary of the method: as §3

rapeseed [24] = assay: Test Example 3: soil treatment, effect on crop; g: rapeseed
Summary of the method: as §3

crabgrass [25] = assay: Test Example 4: weedkilling efficacy by foliar treatment; D: crabgrass
Summary of the method: (§4)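 Seeds are spot-sown into sterilized diluvial soil and covered with about 1.5 cm of soil. After 14 days' greenhouse growth at 25 to 30° C, plants are sprayed on stems and leaves with diluted emulsion at the stated g/ha rate, then scored at 3 weeks.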

green foxtail [26] = assay: Test Example 4: weedkilling efficacy by foliar treatment; E: green foxtail
Summary of the method: as §4

barnyard grass [27] = assay: Test Example 4: weedkilling efficacy by foliar treatment; F: barnyard grass
Summary of the method: as §4

wild oat [28] = assay: Test Example 4: weedkilling efficacy by foliar treatment; G: wild oat
Summary of the method: as §4

black-grass [29] = assay: Test Example 4: weedkilling efficacy by foliar treatment; H: black-grass
Summary of the method: as §4

Italian ryegrass [30] = assay: Test Example 4: weedkilling efficacy by foliar treatment; I: Italian ryegrass
Summary of the method: as §4

common wind-grass [31] = assay: Test Example 4: weedkilling efficacy by foliar treatment; J: common wind-grass
Summary of the method: as §4

Indian mallow [32] = assay: Test Example 4: weedkilling efficacy by foliar treatment; K: Indian mallow
Summary of the method: as §4

redroot pigweed [33] = assay: Test Example 4: weedkilling efficacy by foliar treatment; L: redroot pigweed
Summary of the method: as §4

fig-leafed goosefoot [34] = assay: Test Example 4: weedkilling efficacy by foliar treatment; M: fig-leafed goosefoot
Summary of the method: as §4

chickweed [35] = assay: Test Example 4: weedkilling efficacy by foliar treatment; N: chickweed
Summary of the method: as §4

catchweed = assay: Test Example 4: weedkilling efficacy by foliar treatment; O: catchweed
Summary of the method: as §4

birds-eye speedwell [36] = assay: Test Example 4: weedkilling efficacy by foliar treatment; p: birds-eye speedwell
Summary of the method: as §4

directly sown rice [37] = assay: Test Example 4: foliar treatment, effect on crop; b: directly sown rice
Summary of the method: as §4

corn [38] = assay: Test Example 4: foliar treatment, effect on crop; c: corn
Summary of the method: as §4

soybean [39] = assay: Test Example 4: foliar treatment, effect on crop; d: soybean
Summary of the method: as §4

wheat [40] = assay: Test Example 4: foliar treatment, effect on crop; e: wheat
Summary of the method: as §4

beet [41] = assay: Test Example 4: foliar treatment, effect on crop; f: beet
Summary of the method: as §4

rapeseed [42] = assay: Test Example 4: foliar treatment, effect on crop; g: rapeseed
Summary of the method: as §4

CC1=C(c2ccccc2)C(=O)N(C(C)(C)C(=O)Nc2cc(Cl)cc(C)n2)CO1 [B-2-42]
A (barnyard grass) weedkilling efficacy grade (barnyard grass [1]): 5 (weed kill ratio 90% or more, (practically complete withering)) | B (bulrush) weedkilling efficacy grade (bulrush [2]): 5 (weed kill ratio 90% or more, (practically complete withering)) | C (oval-leafed pondweed) weedkilling efficacy grade (oval-leafed pondweed [3]): 5 (weed kill ratio 90% or more, (practically complete withering)) | a (transplanted rice) effect on crop grade (transplanted rice): 4 (weed kill ratio 70% or more, less than 90%) | A (barnyard grass) weedkilling efficacy grade (barnyard grass [4]): 5 (weed kill ratio 90% or more, (practically complete withering)) | B (bulrush) weedkilling efficacy grade (bulrush [5]): 5 (weed kill ratio 90% or more, (practically complete withering)) | C (oval-leafed pondweed) weedkilling efficacy grade (oval-leafed pondweed [6]): 5 (weed kill ratio 90% or more, (practically complete withering)) | D (crabgrass) weedkilling efficacy grade (crabgrass [7]): 5 (weed kill ratio 90% or more, (practically complete withering)) | E (green foxtail) weedkilling efficacy grade (green foxtail [8]): 5 (weed kill ratio 90% or more, (practically complete withering)) | F (barnyard grass) weedkilling efficacy grade (barnyard grass [9]): 5 (weed kill ratio 90% or more, (practically complete withering)) | G (wild oat) weedkilling efficacy grade (wild oat [10]): 5 (weed kill ratio 90% or more, (practically complete withering)) | H (black-grass) weedkilling efficacy grade (black-grass [11]): 5 (weed kill ratio 90% or more, (practically complete withering)) | I (Italian ryegrass) weedkilling efficacy grade (Italian ryegrass [12]): 5 (weed kill ratio 90% or more, (practically complete withering)) | J (common wind-grass) weedkilling efficacy grade (common wind-grass [13]): 5 (weed kill ratio 90% or more, (practically complete withering)) | K (Indian mallow) weedkilling efficacy grade (Indian mallow [14]): 4 (weed kill ratio 70% or more, less than 90%) | L (redroot pigweed) weedkilling efficacy grade (redroot pigweed [15]): 3 (weed kill ratio 40% or more, less than 70%) | M (fig-leafed goosefoot) weedkilling efficacy grade (fig-leafed goosefoot [16]): 4 (weed kill ratio 70% or more, less than 90%) | N (chickweed) weedkilling efficacy grade (chickweed [17]): 4 (weed kill ratio 70% or more, less than 90%) | P (birds-eye speedwell) weedkilling efficacy grade (birds-eye speedwell [18]): 5 (weed kill ratio 90% or more, (practically complete withering)) | b (directly sown rice) effect on crop grade (directly sown rice [19]): 4 (weed kill ratio 70% or more, less than 90%) | c (corn) effect on crop grade (corn [20]): 1 (weed kill ratio 5% or more, less than 20%) | d (soybean) effect on crop grade (soybean [21]): 0 (weed kill ratio 5% or less (practically no effect)) | e (wheat) effect on crop grade (wheat [22]): 0 (weed kill ratio 5% or less (practically no effect)) | f (beet) effect on crop grade (beet [23]): 4 (weed kill ratio 70% or more, less than 90%) | g (rapeseed) effect on crop grade (rapeseed [24]): 4 (weed kill ratio 70% or more, less than 90%) | D (crabgrass) weedkilling efficacy grade (crabgrass [25]): 5 (weed kill ratio 90% or more, (practically complete withering)) | E (green foxtail) weedkilling efficacy grade (green foxtail [26]): 5 (weed kill ratio 90% or more, (practically complete withering)) | F (barnyard grass) weedkilling efficacy grade (barnyard grass [27]): 5 (weed kill ratio 90% or more, (practically complete withering)) | G (wild oat) weedkilling efficacy grade (wild oat [28]): 3 (weed kill ratio 40% or more, less than 70%) | H (black-grass) weedkilling efficacy grade (black-grass [29]): 5 (weed kill ratio 90% or more, (practically complete withering)) | I (Italian ryegrass) weedkilling efficacy grade (Italian ryegrass [30]): 5 (weed kill ratio 90% or more, (practically complete withering)) | J (common wind-grass) weedkilling efficacy grade (common wind-grass [31]): 5 (weed kill ratio 90% or more, (practically complete withering)) | K (Indian mallow) weedkilling efficacy grade (Indian mallow [32]): 5 (weed kill ratio 90% or more, (practically complete withering)) | L (redroot pigweed) weedkilling efficacy grade (redroot pigweed [33]): 4 (weed kill ratio 70% or more, less than 90%) | M (fig-leafed goosefoot) weedkilling efficacy grade (fig-leafed goosefoot [34]): 4 (weed kill ratio 70% or more, less than 90%) | N (chickweed) weedkilling efficacy grade (chickweed [35]): 4 (weed kill ratio 70% or more, less than 90%) | O (catchweed) weedkilling efficacy grade (catchweed): 5 (weed kill ratio 90% or more, (practically complete withering)) | P (birds-eye speedwell) weedkilling efficacy grade (birds-eye speedwell [36]): 4 (weed kill ratio 70% or more, less than 90%) | b (directly sown rice) effect on crop grade (directly sown rice [37]): 4 (weed kill ratio 70% or more, less than 90%) | c (corn) effect on crop grade (corn [38]): 3 (weed kill ratio 40% or more, less than 70%) | d (soybean) effect on crop grade (soybean [39]): 4 (weed kill ratio 70% or more, less than 90%) | e (wheat) effect on crop grade (wheat [40]): 0 (weed kill ratio 5% or less (practically no effect)) | f (beet) effect on crop grade (beet [41]): 4 (weed kill ratio 70% or more, less than 90%) | g (rapeseed) effect on crop grade (rapeseed [42]): 4 (weed kill ratio 70% or more, less than 90%)
